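Compound exposure: 48 hours, 5 concentrations, 96-well plates. GI50: concentration for 50% inhibition of growth.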 The source made the active and inactive calls. Cut-off read from the data, not from the text of the source: active = GI50 up to about 1.1 µM and inactive = higher.
Assays:
Test in all cases: NCI-60 cell line screen, 48 h
[1] = test system: Malme-3M
[2] = test system: LOX IMVI
[3] = test system: SW-620
[4] = test system: NCI-H23
[5] = test system: SNB-19
[6] = test system: DU-145
[7] = test system: SK-MEL-28
[8] = test system: UO-31
[9] = test system: MDA-MB-435
[10] = test system: HCT-15
[11] = test system: HCT-116
[12] = test system: U-251
[13] = test system: TK-10
[14] = test system: A498
[15] = test system: T47D
[16] = test system: NCI-H460
[17] = test system: NCI-H226
[18] = test system: CAKI-1
[19] = test system: KM12
[20] = test system: OVCAR-4
[21] = test system: HL-60
[22] = test system: OVCAR-5
[23] = test system: SN12C
[24] = test system: IGROV-1
[25] = test system: CCRF-CEM
[26] = test system: SF-295
[27] = test system: SNB-75
[28] = test system: UACC-62
[29] = test system: SR
[30] = test system: OVCAR-3
[31] = test system: NCI-H522
[32] = test system: A549
[33] = test system: SK-OV-3
[34] = test system: RXF 393
[35] = test system: HOP-92
[36] = test system: PC-3
[37] = test system: COLO 205
[38] = test system: Hs-578T
[39] = test system: NCI/ADR-RES
[40] = test system: SK-MEL-5
[41] = test system: K562
[42] = test system: MOLT-4
[43] = test system: UACC-257
[44] = test system: ACHN
[45] = test system: SF-268
[46] = test system: OVCAR-8
[47] = test system: M14
[48] = test system: SF-539
[49] = test system: HOP-62
[50] = test system: SK-MEL-2
[51] = test system: HT-29
[52] = test system: MDA-N
[53] = test system: MDA-MB-231
[54] = test system: 786-0
[55] = test system: MCF7
[56] = test system: EKVX
[57] = test system: RPMI-8226
[58] = test system: HCC 2998

COc1cc(S(=O)(=O)Nc2nc(-c3ccc(N4C(=O)CSC4c4cccs4)cc3)cs2)ccc1Cl (configuration not stated)
GI50 [1]: > 100 µM (inactive) | GI50 [2]: 21.8 µM (inactive) | GI50 [3]: 40.8 µM (inactive) | GI50 [4]: 33.2 µM (inactive) | GI50 [5]: > 100 µM (inactive) | GI50 [6]: > 100 µM (inactive) | GI50 [7]: > 100 µM (inactive) | GI50 [8]: 22.6 µM (inactive) | GI50 [9]: > 100 µM (inactive) | GI50 [10]: 22.8 µM | GI50 [11]: 45.2 µM (inactive) | GI50 [12]: > 100 µM (inactive) | GI50 [13]: > 100 µM (inactive) | GI50 [14]: > 100 µM (inactive) | GI50 [15]: 36.8 µM (inactive) | GI50 [16]: > 100 µM (inactive) | GI50 [17]: > 100 µM (inactive) | GI50 [18]: > 100 µM (inactive) | GI50 [19]: 75.5 µM (inactive) | GI50 [20]: 31.3 µM (inactive) | GI50 [21]: 23.2 µM (inactive) | GI50 [22]: > 100 µM (inactive) | GI50 [23]: 25.6 µM (inactive) | GI50 [24]: 34.3 µM (inactive) | GI50 [25]: 17.9 µM (inactive) | GI50 [26]: > 100 µM (inactive) | GI50 [27]: > 100 µM (inactive) | GI50 [28]: 83.6 µM (inactive) | GI50 [29]: 28.9 µM (inactive) | GI50 [30]: 33.7 µM (inactive) | GI50 [31]: 30.9 µM (inactive) | GI50 [32]: > 100 µM (inactive) | GI50 [33]: > 100 µM (inactive) | GI50 [34]: 24.1 µM (inactive) | GI50 [35]: 36.6 µM (inactive) | GI50 [36]: 88.3 µM (inactive) | GI50 [37]: > 100 µM (inactive) | GI50 [38]: 97.1 µM (inactive) | GI50 [39]: > 100 µM (inactive) | GI50 [40]: > 100 µM (inactive) | GI50 [41]: 31 µM (inactive) | GI50 [42]: 22.1 µM (inactive) | GI50 [43]: 71 µM (inactive) | GI50 [44]: > 100 µM (inactive) | GI50 [45]: 37.6 µM (inactive) | GI50 [46]: 33 µM (inactive) | GI50 [47]: > 100 µM (inactive) | GI50 [48]: 49.7 µM (inactive) | GI50 [49]: > 100 µM (inactive) | GI50 [50]: 57.5 µM (inactive) | GI50 [51]: > 100 µM (inactive) | GI50 [52]: 43.4 µM (inactive) | GI50 [53]: > 100 µM (inactive) | GI50 [54]: 81.1 µM (inactive) | GI50 [55]: 43.5 µM (inactive)

COC(CC1(/C=C/O[Si](C(C)C)(C(C)C)C(C)C)C(=O)N(C)c2ccccc21)OC (configuration not stated)
GI50 [2]: 33.4 µM (inactive) | GI50 [3]: > 100 µM (inactive) | GI50 [4]: 42.1 µM (inactive) | GI50 [5]: > 100 µM (inactive) | GI50 [6]: > 100 µM (inactive) | GI50 [7]: > 100 µM (inactive) | GI50 [8]: 68.2 µM (inactive) | GI50 [9]: 76.2 µM (inactive) | GI50 [56]: 46 µM (inactive) | GI50 [10]: 40.9 µM | GI50 [11]: 28.5 µM (inactive) | GI50 [12]: 51.9 µM (inactive) | GI50 [14]: > 100 µM (inactive) | GI50 [15]: 55.3 µM (inactive) | GI50 [16]: 45.9 µM (inactive) | GI50 [17]: 24.1 µM (inactive) | GI50 [18]: > 100 µM (inactive) | GI50 [19]: 39.4 µM (inactive) | GI50 [20]: 34.5 µM (inactive) | GI50 [21]: 51.8 µM (inactive) | GI50 [22]: > 100 µM (inactive) | GI50 [23]: 78.9 µM (inactive) | GI50 [25]: 64.7 µM (inactive) | GI50 [26]: 28.6 µM (inactive) | GI50 [27]: > 100 µM (inactive) | GI50 [28]: > 100 µM (inactive) | GI50 [29]: 31.6 µM (inactive) | GI50 [30]: > 100 µM (inactive) | GI50 [32]: 45.2 µM (inactive) | GI50 [33]: 35.7 µM (inactive) | GI50 [34]: 59.6 µM (inactive) | GI50 [35]: > 100 µM (inactive) | GI50 [36]: 49.3 µM (inactive) | GI50 [37]: 58.9 µM (inactive) | GI50 [38]: 15.9 µM (inactive) | GI50 [39]: 22.9 µM (inactive) | GI50 [40]: 36.8 µM (inactive) | GI50 [41]: 51.5 µM (inactive) | GI50 [42]: 55.3 µM (inactive) | GI50 [43]: 47 µM (inactive) | GI50 [57]: 15.3 µM (inactive) | GI50 [44]: 62.5 µM (inactive) | GI50 [58]: 64 µM (inactive) | GI50 [45]: 36.6 µM (inactive) | GI50 [46]: 54.3 µM (inactive) | GI50 [47]: 94.8 µM (inactive) | GI50 [49]: 58.1 µM (inactive) | GI50 [50]: > 100 µM (inactive) | GI50 [52]: > 100 µM (inactive) | GI50 [53]: > 100 µM (inactive) | GI50 [54]: 18.4 µM (inactive) | GI50 [55]: 36.8 µM (inactive)
